For one series, the target named is T1, SIRT2 (Homo sapiens, UniProt Q8IXJ6).
T1 sequence (Q8IXJ6 1-389): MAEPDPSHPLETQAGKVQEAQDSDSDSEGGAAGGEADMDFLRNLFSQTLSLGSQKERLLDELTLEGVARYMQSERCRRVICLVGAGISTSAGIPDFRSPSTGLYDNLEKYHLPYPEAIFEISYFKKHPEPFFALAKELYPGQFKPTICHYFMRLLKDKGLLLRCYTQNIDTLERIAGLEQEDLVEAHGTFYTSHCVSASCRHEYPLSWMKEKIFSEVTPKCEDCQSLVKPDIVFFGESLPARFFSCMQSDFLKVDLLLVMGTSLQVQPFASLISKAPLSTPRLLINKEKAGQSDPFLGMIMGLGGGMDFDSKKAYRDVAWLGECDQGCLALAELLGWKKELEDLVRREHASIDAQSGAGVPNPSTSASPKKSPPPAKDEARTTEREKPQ
The series can be described thus: In vitro inhibition of SIRT2 by cambinol analogs. The following applies: for activity against SIRT2 in words: compared with cambinol (1); for inhibition at 60 µM: read-out: Inhibition at 60 μM ± SE (%) SIRT2; for Inhibition at 60 μM ± SE (%) SIRT2: in duplicate, ± standard error (n = 2).

Another series has as its target T2, SIRT1 (Homo sapiens, UniProt Q96EB6).
T2 sequence (Q96EB6 1-747): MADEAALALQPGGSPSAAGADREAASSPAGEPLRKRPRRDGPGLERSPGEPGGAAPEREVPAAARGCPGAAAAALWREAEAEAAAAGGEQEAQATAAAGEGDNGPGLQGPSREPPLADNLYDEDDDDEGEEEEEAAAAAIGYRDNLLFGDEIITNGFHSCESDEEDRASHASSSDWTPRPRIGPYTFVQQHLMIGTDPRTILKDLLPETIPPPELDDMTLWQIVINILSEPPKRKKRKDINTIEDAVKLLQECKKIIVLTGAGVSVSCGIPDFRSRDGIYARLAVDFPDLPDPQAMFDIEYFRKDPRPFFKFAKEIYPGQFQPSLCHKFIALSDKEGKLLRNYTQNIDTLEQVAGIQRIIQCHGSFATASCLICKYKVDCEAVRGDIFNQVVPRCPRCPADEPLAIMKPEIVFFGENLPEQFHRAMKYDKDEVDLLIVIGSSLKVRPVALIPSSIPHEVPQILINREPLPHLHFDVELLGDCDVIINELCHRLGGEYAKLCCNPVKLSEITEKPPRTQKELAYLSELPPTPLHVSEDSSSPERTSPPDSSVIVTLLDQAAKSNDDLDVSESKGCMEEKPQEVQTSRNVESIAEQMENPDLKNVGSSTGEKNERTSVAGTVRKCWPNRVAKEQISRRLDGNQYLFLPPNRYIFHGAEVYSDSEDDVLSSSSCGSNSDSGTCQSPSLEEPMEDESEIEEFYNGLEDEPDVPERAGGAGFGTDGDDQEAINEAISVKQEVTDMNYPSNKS
Put plainly: In vitro inhibition of SIRT1 by cambinol analogs. The following applies: for Inhibition at 60 μM ± SE (%) SIRT1: in duplicate, ± standard error (n = 2); for activity against SIRT1 in words: compared with cambinol (1).

Entries after “also recorded” stand apart in the source; their conditions may differ.

As usually defined, the inhibition is how much of the control response was suppressed. `O=c1[nH]c(-c2ccccc2)c(Cc2c(O)ccc3ccccc23)c(=O)[nH]1` [Compound 6a, 5-(2-Hydroxy-naphthalen-1-ylmethyl)-6-phenyl-1H-pyrimidine-2,4-dione]: on SIRT2, the “activity against SIRT2 in words” value is reported as “significantly reduced activity” and the inhibition at 60 µM worked out at 6.5 ± 4%.
A word on the melting point: it is the temperature, or range, at which the solid turns liquid. With `COc1ccc(-c2[nH]c(=S)[nH]c(=O)c2Cc2c(O)ccc3ccccc23)cc1` [Compound 6c, 5-(2-Hydroxy-naphthalen-1-ylmethyl)-6-(4-methoxy-phenyl)-2-thioxo-2,3-dihydro-1H-pyrimidin-4-one], the melting point is 262 to 265 °C. On SIRT2, the “activity against SIRT2 in words” value is on record as “loss of activity” and the inhibition at 60 µM was determined as 9.2 ± 2%.
As usually defined, the IC50 is the concentration that inhibits the measured activity by half. The molecule `Cn1c(-c2ccccc2)c(Cc2c(O)ccc3ccccc23)c(=O)[nH]c1=S` [Compound 6e, 5-(2-Hydroxy-naphthalen-1-ylmethyl)-1-methyl-6-phenyl-2-thioxo-2,3-dihydro-1H-pyrimidin-4-one] registered a melting point of 254 to 257 °C. Further, the IC50 on SIRT2 (read-out: IC50 SIRT2, repeated at least two times) turned out to be 20.1 ± 5 µM. Also, the inhibition at 60 µM on SIRT2 was found to be 80.4 ± 1%.
The term Inhibition denotes the percentage by which the read-out fell short of the control. A higher Inhibition goes with a strong effect. With `O=c1[nH]c(=S)[nH]c(-c2ccc(Cl)cc2)c1Cc1c(O)ccc2ccccc12` [Compound 6iv, 6-(4′-Chloro-phenyl)-5-(2″-hydroxy-naphthalen-1-ylmethyl)-2-thioxo-2,3-dihydro-1H-pyrimidin-4-one], on SIRT1, the “Inhibition at 60 μM ± SE (%) SIRT1” value was 13.7 ± 1% and the “activity against SIRT1 in words” value is on record as “significant decrease in activity”. On SIRT2, the “Inhibition at 60 μM ± SE (%) SIRT2” value worked out at 20.1 ± 1% and the “activity against SIRT2 in words” value is “significant decrease in activity”.
`O=c1[nH]c(=S)[nH]c(-c2cccc(Cl)c2)c1Cc1c(O)ccc2ccccc12` [Compound 6ix, 6-(3′-Chloro-phenyl)-5-(2″-hydroxy-naphthalen-1-ylmethyl)-2-thioxo-2,3-dihydro-1H-pyrimidin-4-one]: at SIRT1, the “Inhibition at 60 μM ± SE (%) SIRT1” value came out at 11.3 ± 1% and the “activity against SIRT1 in words” value is given as “reduced activity”. On SIRT2, the “Inhibition at 60 μM ± SE (%) SIRT2” value stood at 7.6 ± 6% and the “activity against SIRT2 in words” value is “reduced activity”.
As to `O=c1[nH]c(=S)[nH]c(-c2ccc(I)cc2)c1Cc1c(O)ccc2ccccc12` [Compound 6v, 5-((2″-hydroxynaphthalen-1-yl)methyl)-6-(4′-iodophenyl)-2-thioxo-2,3-dihydropyrimidin-4(1H)-one], on SIRT1, the “activity against SIRT1 in words” value was “significant decrease in activity”. The inhibition at 60 µM on SIRT1 (read-out: Inhibition at 60 μM ± SE (%) SIRT1) was determined as 7.7 ± 1%. On SIRT2, the “activity against SIRT2 in words” value is recorded as “significant decrease in activity; also recorded: relative lack of activity” and the inhibition at 60 µM amounted to 7.7 ± 1%.
`O=c1[nH]c(=S)[nH]c(-c2ccc(C(F)(F)F)cc2)c1Cc1c(O)ccc2ccccc12` [Compound 6vi, 5-(2″-Hydroxy-naphthalen-1-ylmethyl)-2-thioxo-6-(4′-trifluoromethyl-phenyl)-2,3-dihydro-1H-pyrimidin-4-one]: on SIRT1, the “Inhibition at 60 μM ± SE (%) SIRT1” value is on record as 15.1 ± 1% and the “activity against SIRT1 in words” value is listed as “significant decrease in activity”. At SIRT2, the “Inhibition at 60 μM ± SE (%) SIRT2” value is 6.7 ± 1% and the “activity against SIRT2 in words” value is on record as “significant decrease in activity”.
On to `O=c1[nH]c(=S)[nH]c(-c2ccccc2Br)c1Cc1c(O)ccc2ccccc12` [Compound 6vii, 6-(2′-Bromo-phenyl)-5-(2″-hydroxy-naphthalen-1-ylmethyl)-2-thioxo-2,3-dihydro-1H-pyrimidin-4-one], for which, on SIRT1, the “Inhibition at 60 μM ± SE (%) SIRT1” value is 19.7 ± 1% and the “activity against SIRT1 in words” value is given as “SIRT1 activity was lost”.
For the molecule `O=c1[nH]c(=S)[nH]c(-c2cccc(Br)c2)c1Cc1c(O)ccc2ccccc12` [Compound 6viii, 6-(3′-Bromo-phenyl)-5-(2″-hydroxy-naphthalen-1-ylmethyl)-2-thioxo-2,3-dihydro-1H-pyrimidin-4-one], on SIRT1, the “Inhibition at 60 μM ± SE (%) SIRT1” value was found to be 4.8 ± 1% and the “activity against SIRT1 in words” value is reported as “SIRT1 activity was lost”. The “Inhibition at 60 μM ± SE (%) SIRT2” value on SIRT2 is 6.6 ± 3%.

For the origin of these results see patent publication US8563557B2, “Pyrimidine derivatives and their pharmaceutical use” (University Court of the University of Dundee, priority 2008, dated 2013).
